Experimental data: patent EP2695874A1, “Myrtucommulone analogues” (Universität des Saarlandes, priority 2012, dated 2014)

Experiments:
mPGES-1 = biological target: T1, mPGES-1 (Homo sapiens, UniProt O14684); assay: Determination of PGE2 synthase activity in microsomes of A549 cells; format: biochemical; conditions: PGH2 substrate, 15 min preincubation at 4°C, read-out: mPGES-1 (IC50 in µmol l^-1)
T1 construct: Determination of PGE2 synthase activity in microsomes of A549 cells; endogenous in cells; host or cells: A549 cells (microsomal membranes)
T1 sequence (O14684 1-152): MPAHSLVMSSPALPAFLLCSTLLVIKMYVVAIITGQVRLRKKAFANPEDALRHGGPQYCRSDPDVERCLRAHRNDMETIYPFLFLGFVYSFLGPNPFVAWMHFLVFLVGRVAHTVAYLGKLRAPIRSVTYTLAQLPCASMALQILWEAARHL
Procedure: Example 9 - Determination of PGE2 synthase activity in microsomes of A549 cells
(A. Koeberle, F. Pollastro, H. Northoff and O. Werz, Br. J. Pharmacol. 2009, 156, 952-961.)
Microsomal membranes were diluted in potassium phosphate buffer (0.1 mol·1^-1, pH 7.4) containing 2.5 mmol·l^-1 glutathione.
Test compounds or vehicle were added, and after 15 min at 4°C the reaction ([…]) was initiated by addition of PGH2 ([…], final concentration). After 1 min at 4°C, the reaction was terminated by using stop solution (100 ml; 40 mmol·l^-1 FeCl2, 80 mmol·l^-1 citric acid and 10 mmol·l^-1 of 11b-PGE2). PGE2 was separated by solid phase extraction on reversed phase (RP)-C18 material by using acetonitrile (200 ml) as eluent, and analysed by RP-HPLC (30% acetonitrile in water + 0.007% TFA (v,v), Nova-Pak® C18 column, 5 x 100 mm, 4 mm particle size, flow rate 1 m-·min^-1) with UV detection at 195 nm. 11b-PGE2 was used as internal standard to quantify PGE2 product formation by integration of the area under the peaks.

5-LO [1] = biological target: T2, 5-LO (Homo sapiens, UniProt P09917); assay: 5-LO product formation of purified 5-LO enzyme (cell-free assay); format: biochemical; conditions: 10 µM AA, 2 mM CaCl2, read-out: 5-LO cell-free assay (IC50 in µmol l^-1)
T2 sequence (P09917 1-674): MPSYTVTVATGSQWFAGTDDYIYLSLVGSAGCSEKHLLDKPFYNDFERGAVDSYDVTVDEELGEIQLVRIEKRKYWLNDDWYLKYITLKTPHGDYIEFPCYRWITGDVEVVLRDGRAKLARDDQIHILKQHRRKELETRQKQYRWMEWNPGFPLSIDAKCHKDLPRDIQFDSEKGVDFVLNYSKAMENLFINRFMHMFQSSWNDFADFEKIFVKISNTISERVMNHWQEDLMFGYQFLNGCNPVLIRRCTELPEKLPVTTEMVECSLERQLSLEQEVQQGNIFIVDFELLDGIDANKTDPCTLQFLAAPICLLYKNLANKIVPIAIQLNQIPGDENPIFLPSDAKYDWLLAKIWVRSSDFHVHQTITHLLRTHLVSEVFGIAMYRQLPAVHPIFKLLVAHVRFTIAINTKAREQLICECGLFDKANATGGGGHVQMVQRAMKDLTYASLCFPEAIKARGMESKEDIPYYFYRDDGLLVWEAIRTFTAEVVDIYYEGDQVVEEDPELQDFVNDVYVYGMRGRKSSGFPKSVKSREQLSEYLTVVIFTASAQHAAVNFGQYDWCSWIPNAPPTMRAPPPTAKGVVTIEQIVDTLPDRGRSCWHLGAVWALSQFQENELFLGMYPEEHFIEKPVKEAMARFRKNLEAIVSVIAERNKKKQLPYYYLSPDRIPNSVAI
Procedure: (§1) To assay 5- and 15-lipoxygease (LO) product formation in intact cells, 7.5 x 10^6 freshly isolated PMNLs were finally resuspended in 1 ml of PGC buffer. After preincubation with the test compounds for 10 min at 37°C, the reaction was started by the addition of 1 µM ionomycin plus 20 µM AA. After 10 min at 37°C, the reaction was stopped with 1 ml of methanol and 30 µl of 1 N HCl, and 200 ng of prostaglandin B1 and 500 µl of PBS were added. Formed AA metabolites were extracted and analyzed by HPLC. To determine product formation of purified 5-LO enzyme, 5-LO protein (0.1 µg in 10 µl) was added to 990 µl of PBS containing 1 mM EDTA and 1 mM ATP on ice and the indicated compounds were added. After 5 to 10 min on ice, the samples were preincubated for 30 s at 37°C and CaCl2 and AA (2 mM and 10 µM, respectively) were added to start the 5-LO reaction. After 10 min, the incubation was terminated and 5-LO product formation was determined as described for the intact cells.

5-LO [2] = biological target: T2, 5-LO; assay: 5-LO product formation in intact PMNLs (cell-based assay); conditions: 1 µM ionomycin plus 20 µM AA, read-out: 5-LO cell-based assay (IC50 in µmol l^-1)
Procedure: as §1

Cell lines = assay: Determination of cell viability by MTT assay (apoptose induction); format: cell-based; conditions: cell line not given, read-out: Apoptose induction (EC50 in µmol l^-1)
Procedure: Example 11 - Determination of cell viability by MTT assay
(I. Tretiakova, D. Blaesius, L. Maxia, S. Wesselborg, K. Schulze-Osthoff, J CinatlJr., M. Michaelis, O. Werz, Apoptosis 2008, 13, 119-131.)
Cell viability was assessed using the MTT assay. Cell lines were incubated at 37°C and 5% CO2 atmosphere with the indicated additives for 5 days. PBMC were treated for 40 h and in some experiments, MM6 cells were only treated for 24 h. DMSO was used as solvent never exceeding 0.5% (vol/vol). Then, MTT reagent was added for 4 h. Thereafter, 100 II SDS solution (20% SDS in a 1:1 (vol by vol) dimethylformamide/ water solution) was added for 4 h. Plates were read on a multiwell scanning spectrophotometer (Victor3 plate reader, PerkinElmer, Rodgau-Juegesheim, Germany) at a wavelength of 620 nm and a reference wavelength of 690 nm. Induction of cell death was determined as the relative reduction of the optical density.

| SMILES | IC50 (mPGES-1) [nM] | IC50 (5-LO [1]) [nM] | IC50 (5-LO [2]) [nM] | EC50 (Cell lines) [nM] |
| --- | --- | --- | --- | --- |
| O=C1C(C(c2ccccc2)c2c(O)c(C(=O)c3ccccc3)c(O)c(C(C3=C(O)c4ccccc4C3=O)c3ccccc3)c2O)=C(O)c2ccccc21 (racemic) [(Ih), 2,2'-(5-Benzoyl-2,4,6-trihydroxy-1,3-phenylene)bis(phenylmethylene)bis(3-hydroxy-1H-inden-1-one)] | 330 | 2990 | 840 | > 30000 |
| CCCCCC(=O)c1c(O)c(C(C2=C(O)c3ccccc3C2=O)C(C)C)c(O)c(C(C2=C(O)c3ccccc3C2=O)C(C)C)c1O (centres unmarked) [Compound (Ib), 2,2'-(1,1'-(5-Hexanoyl-2,4,6-trihydroxy-1,3-phenylene)bis(2-methylpropane-1,1-diyl))bis(3-hydroxy-1H-inden-1-one)] | 80 | 1740 | 1460 | > 30000 |
| CCCCCC(=O)c1c(O)c(C(C2=C(O)c3ccccc3C2=O)c2ccccc2)c(O)c(C(C2=C(O)c3ccccc3C2=O)c2ccccc2)c1O (racemic) [Compound (Ig), 2,2'-(5-Hexanoyl-2,4,6-trihydroxy-1,3-phenylene)bis(phenylmethylene)bis(3-hydroxy-1H-inden-1-one)] | 390 | 1100 | 2090 | > 30000 |
| CC(C)C(=O)c1c(O)c(C(C2=C(O)c3ccccc3C2=O)c2ccccc2)c(O)c(C(C2=C(O)c3ccccc3C2=O)c2ccccc2)c1O (racemic) [Compound (Ie), 2,2'-(2,4,6-Trihydroxy-5-isobutyryl-1,3-phenylene)bis(phenylmethylene)bis(3-hydroxy-1H-inden-1-one)] | 550 | 730 | 620 | > 30000 |
| CC(C)C(C1=C(O)c2ccccc2C1=O)c1c(O)c(C(=O)c2ccccc2)c(O)c(C(C2=C(O)c3ccccc3C2=O)C(C)C)c1O (centres unmarked) [Compound (Id), 2,2'-(1,1'-(5-Benzoyl-2,4,6-trihydroxy-1,3-phenylene)bis(2-methylpropane-1,1-diyl))bis(3-hydroxy-1H-inden-1-one)] | 680 | 6860 | 3230 | > 30000 |
| CC(C)CC(=O)c1c(O)c(C(C2=C(O)c3ccccc3C2=O)C(C)C)c(O)c(C(C2=C(O)c3ccccc3C2=O)C(C)C)c1O (centres unmarked) [Compound (Ic), 2,2'-(1,1'-(2,4,6-Trihydroxy-5-(3-methylbutanoyl)-1,3-phenylene)bis(2-methylpropane-1,1-diyl))bis(3-hydroxy-1H-inden-1-one)] | 180 | 300 | 1040 | > 30000 |
| CC(C)CC(=O)c1c(O)c(C(C2=C(O)c3ccccc3C2=O)c2ccccc2)c(O)c(C(C2=C(O)c3ccccc3C2=O)c2ccccc2)c1O (racemic) [(If), 2,2'-(2,4,6-Trihydroxy-5-(3-methylbutanoyl)-1,3-phenylene)bis(phenylmethylene)bis(3-hydroxy-1H-inden-1-one)] | 190 | 460 | 690 | > 30000 |
| CC(C)C(=O)c1c(O)c(C(C2=C(O)c3ccccc3C2=O)C(C)C)c(O)c(C(C2=C(O)c3ccccc3C2=O)C(C)C)c1O (centres unmarked) [Compound (Ia), 2,2'-(1,1'-(2,4,6-Trihydroxy-5-isobutyryl-1,3-phenylene)bis(2-methylpropane-1,1-diyl))bis(3-hydroxy-1H-inden-1-one)] | 300 | 2800 | 6700 | > 30000 |
